According to ChEMBL document CHEMBL1128621, “Design and synthesis of nonpeptidal endothelin receptor antagonists based on the structure of a cyclic pentapeptide” (Bioorg Med Chem Lett, 1995):
Where a SMILES comes first, the peptide text is derived from it. [ ]: non-standard residue; d: D form.

Columns and labels:
[1] = target: T1, Endothelin receptor type B (Rattus norvegicus, UniProt P21451); test: Affinity against ET B receptor
T1 sequence (P21451 whole entry): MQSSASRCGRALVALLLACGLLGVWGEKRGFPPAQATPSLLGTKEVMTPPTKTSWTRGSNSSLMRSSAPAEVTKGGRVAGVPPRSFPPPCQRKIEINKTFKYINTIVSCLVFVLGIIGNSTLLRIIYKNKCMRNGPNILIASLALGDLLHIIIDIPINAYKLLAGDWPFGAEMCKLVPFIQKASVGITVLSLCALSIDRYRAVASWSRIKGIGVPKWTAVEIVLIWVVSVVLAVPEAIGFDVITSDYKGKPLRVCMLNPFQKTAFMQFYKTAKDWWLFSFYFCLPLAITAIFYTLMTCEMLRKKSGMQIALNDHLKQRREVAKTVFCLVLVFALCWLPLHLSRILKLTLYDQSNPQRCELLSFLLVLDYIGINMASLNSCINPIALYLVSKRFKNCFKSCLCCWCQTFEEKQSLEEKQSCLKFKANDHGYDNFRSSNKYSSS

Endothelin-1 receptor = target: T2, Endothelin-1 receptor (Homo sapiens, UniProt P25101); test: Affinity against ET A receptor
T2 sequence (P25101 whole entry): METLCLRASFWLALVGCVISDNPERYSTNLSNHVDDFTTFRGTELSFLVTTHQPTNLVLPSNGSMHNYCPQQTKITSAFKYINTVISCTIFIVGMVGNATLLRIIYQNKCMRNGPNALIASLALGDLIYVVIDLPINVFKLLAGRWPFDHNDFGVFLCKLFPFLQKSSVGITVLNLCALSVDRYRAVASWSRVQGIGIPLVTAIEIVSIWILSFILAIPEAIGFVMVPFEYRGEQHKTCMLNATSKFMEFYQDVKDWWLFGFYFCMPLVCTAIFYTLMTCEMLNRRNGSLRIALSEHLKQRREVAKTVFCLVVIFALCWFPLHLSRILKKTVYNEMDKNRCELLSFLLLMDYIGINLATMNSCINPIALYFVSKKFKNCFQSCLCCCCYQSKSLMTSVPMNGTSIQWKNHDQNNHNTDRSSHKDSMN

Question: Which results are given for CCCN1c2ccccc2C(=O)N(CC(=O)O)c2cc(NC(=O)c3cc4ccccc4[nH]3)ccc21?
Answer: Ki [1]: 6 µM; Ki (Endothelin-1 receptor): 33 µM

Question: What does the source list for CCCN1c2ccccc2C(=O)N(CC(=O)O)c2cc(NCc3cccc4ccccc34)ccc21?
Answer: Ki [1]: 9 µM; Ki (Endothelin-1 receptor): 17 µM

Question: What does the source list for CCCN1c2ccccc2C(=O)N(CC(=O)O)c2cc(NC(=O)c3c[nH]c4ccccc34)ccc21?
Answer: Ki [1]: 11 µM; Ki (Endothelin-1 receptor): 80 µM

Question: Which results are given for CCCN1c2ccccc2C(=O)N(CC(=O)O)c2cc(OCc3cccc4ccccc34)ccc21?
Answer: Ki [1]: 60 µM; Ki (Endothelin-1 receptor): 7 µM

Question: What does the source list for CCCN1c2ccccc2C(=O)N(CC(=O)O)c2cc(NC(=O)Cc3c[nH]c4ccccc34)ccc21?
Answer: Ki [1]: 7 µM; Ki (Endothelin-1 receptor): 14 µM

Question: With CCCN1c2ccccc2C(=O)N(CC(=O)O)c2cc(NC(=O)c3cccc4ccccc34)ccc21 as the molecule, how does the Ki (Endothelin-1 receptor) read?
Answer: 83 µM

Question: Which Ki (Endothelin-1 receptor) does the source give for CC(C)C[C@@H]1NC(=O)[C@@H](C(C)C)NC(=O)[C@@H]2CCCN2C(=O)[C@@H](CC(=O)O)NC(=O)[C@@H](Cc2c[nH]c3ccccc23)NC1=O [BQ-123] (cyclo(L[dW][dD]P[dV])) here?
Answer: 0.018 µM

Question: Which Ki [1] does the source give for O=C(O)CN1C(=O)c2ccccc2Nc2ccc(OCc3cccc4ccccc34)cc21 here?
Answer: 8 µM

Question: What about the Ki (Endothelin-1 receptor) of the same molecule?
Answer: 28 µM

Question: How did the Ki [1] turn out when CCCN1c2ccccc2C(=O)N(CC(=O)O)c2cc(Cc3c[nH]c4ccccc34)ccc21 was run?
Answer: 12 µM

Question: And the Ki (Endothelin-1 receptor)?
Answer: 41 µM

Question: How did the Ki (Endothelin-1 receptor) turn out when CC(C)C[C@@H]1NC(=O)[C@@H](C(C)C)NC(=O)[C@@H]2CCCN2C(=O)[C@@H](CC(=O)O)NC(=O)[C@@H](Cc2cccc3ccccc23)NC1=O was run?
Answer: 0.224 µM

Question: For O=C(O)CN1C(=O)c2ccccc2Nc2ccc(OCc3ccccc3)cc21, which Ki [1] is on record?
Answer: > 100 µM

Question: And the Ki (Endothelin-1 receptor)?
Answer: 109 µM

Question: With CC(C)C[C@@H]1NC(=O)[C@@H](C(C)C)NC(=O)[C@@H]2CCCN2C(=O)[C@@H](CC(=O)O)NC(=O)[C@@H](Cc2ccccc2)NC1=O as the molecule, how does the Ki (Endothelin-1 receptor) read?
Answer: 2.4 µM
